# Measurements reported in patent publication US20250009856A1, “METHODS FOR TREATING RESPIRATORY DISEASES” (MUCPharm Pty Ltd, priority 2021, published 2025).
# Values joined by “and” are separate entries in the source; they are usually repeats but may differ in a detail not shown here. Equal entries are not always repeated.
# How the values were obtained:
# [1] = Dynamic viscosity (capillary tube) after aerosol treatment; design: species or system human; conditions: SS; for Dynamic viscosity (γ), After: before 1.748 ± 0.006
# Description: Six grams of soft PMP mucin was homogenised using a shredder with phosphate buffer saline (PBS) (3.0 ml) with sonification and vortexed until a homogenous mixture was formed, with incubation at 37° C. to remove air bubbles and after which viscosity was adjusted (further dilutions with PBS). The pH was adjusted to 7.0 using either 1.0 M NaOH or 0.1 N Hydrochloric acid. Dynamic viscosity (Y) of sputum was measured using the capillary tube method as outlined in […]. and G. Castellano, Determination of the kinematic viscosity by the liquid rise in a capillary tube. […] Ensino de Física, 2013. 35. A similar investigation as above was carried out to determine a comparative dynamic viscosity and pipette flow time for PMP mucin simulated sputa (SS). A similar treatment as in the experiment described above for NAC was carried out using Bromelain (125 and 250 μg/ml) in PBS (pH.7.0) along with control using PBS (pH.7.0). Both dynamic viscosity and pipette flow time was measured as outlined earlier for both artificial and PMP simulated sputa models. Using a combination of NAC (20 mg/ml) with either 125 or 250 μg/ml Bromelain in PBS (pH.7.0), a similar investigation was carried out as outlined earlier and measurements were made for both artificial and simulated sputa models. D=(TREATED)-(UNTREATED/(UNTREATED)×100.
# [2] = test system: chemokines, cytokines and growth factors in tracheal aspirate samples from COVID-19 patients; assay: Immunological inflammatory mediators, 27-plex bead assay; design: species or system human; conditions: BromAc 125 and 250 mcg + 2% NAC, or NAC alone at 2%; 60 minutes, 37° C.
# Description: In order to verify the effect of BromAc in the inflammatory mediators present in tracheal aspirate (TA) samples from COVID-19 patients. TA specimens were treated with 125 to 250 μg of Bromelain and 2% NAC (BromAc) using the MAD device as described previously. Treated and untreated TA specimens were incubated at 37° C. in 6 well plates for 1 hour. After that, TA specimen aliquots were initially cleared by centrifugation at 800×g for 10 min, at room temperature and TA supernatants were transferred to fresh 2 mL microtubes. Samples were diluted 1:10 and incubated with magnetic beads covered with monoclonal antibodies specific to several immunological mediators, such as: chemokines (CXCL8, CCL11, CCL3, CCL4, CCL2, and CXCL10), inflammatory cytokines (IL-1b, IL-6, TNF-α, IL-12, IFN-g, IL-15 and IL-17), regulatory cytokines (IL-1Ra, IL-9. IL-10) and growth factors (FGF-basic, PDGF, VEGF, G-CSF. GM-CSF, IL-2 and IL-7). Experiments were carried out according to the manufacturer's instructions using the Procarta Human Cytokine 27-plex Assay, (Invitrogen, CA, USA). The immunological mediators were measured in TA samples and the concentrations of each sample was determined according to standard curves run for each molecule tested using a fifth parameter logistic fit analysis. The results were expressed as pg/mL for all mediators tested. […]
# [3] = Dynamic viscosity (capillary tube) after aerosol treatment; conditions: AS; for Dynamic viscosity (γ), After: before 1.382 ± 0.013
# Description: Artificial sputum was prepared following protocol as detailed by […] et al (Kirchner, S., et al., Use of artificial sputum medium to test antibiotic efficacy against Pseudomonas aeruginosa in conditions more relevant to the cystic fibrosis lung. Journal of visualized experiments: JOVE, 2012 (64)). Briefly 250 mg of porcine mucin, 200 mg of sperm DNA, 295 mg of diethylene triamine pentaacetic acid (DPTA), 25 mg sodium chloride, 110 mg potassium chloride, 140 mg Tris base were mixed in a volume of 45 ml of distilled water and pH adjusted to 7.0 using Trisbase. The volume of the solution was then adjusted to 50 ml. Further dilutions were then carried out to adjust viscosity as desired. Dynamic viscosity (Y) of sputum was measured using the capillary tube method as outlined in […]. and G. Castellano, Determination of the kinematic viscosity by the liquid rise in a capillary tube. […] Ensino de Física, 2013. 35. Artificial sputa (AS) were prepared as detailed above, and 1.5 ml of artificial sputum was carefully emptied into an endotracheal tube (in triplicates). A volume of 6.0 ml of NAC 10 mg/ml in PBS (pH.7.0) in triplicate was aerosolised using a nebulizer and passed over the sputum samples in the endotracheal tubes kept at 37° C. in a water bath. Similarly, the experiments were repeated using NAC 20 mg/ml in PBS (pH.7.0). The controls only received PBS (pH 7.0). The aerosol delivery time to empty 6.0 ml for each treatment was 25 min. The dynamic viscosity of the sputa was measured before and after using the capillary tube method, whilst the pipette flow time was also measured as described earlier using a 0.5 ml glass pipette. Samples were equilibrated to 25° C. before measurement A similar treatment as in the experiment described above for NAC was carried out using Bromelain (125 and 250 μg/ml) in PBS (pH.7.0) along with control using PBS (pH.7.0). Both dynamic viscosity and pipette flow time was measured as outlined earlier for both artificial and PMP simulated sputa models. Using a combination of NAC (20 mg/ml) with either 125 or 250 μg/ml Bromelain in PBS (pH.7.0), a similar investigation was carried out as outlined earlier and measurements were made for both artificial and simulated sputa models. D=(TREATED)-(UNTREATED/(UNTREATED)×100.
# [4] = Sputum flow speed after mixing with BromAc, DNase and combinations; conditions: agent without DNASE: BR(250 ug/ml), NAC(20 mg/ml) or both; 1 hour, 37 deg C; Cont(PBS) 0.0436
# Description: Artificial sputa was prepared following methodology with ingredients as in earlier experiments. To 1.5 ml of artificial sputa in a vial was added 0.5 ml of reagent containing the required bromelain, NAC, DNase and their combinations. Control vials included 0.5 ml of PBS only. The mixture was vortex mixed and incubated in a shaker water bath at 37 deg C. At the end of 1 hour, the samples were retrieved, vortex mixed and equilibrated to ambient room temperature before measuring dynamic viscosity and pipette flow.
# Dynamic viscosity was determined using the capillary tube method as in earlier experiments, whilst the pipette flow was evaluated using a 0.5 ml pipette inclined at 60 deg angle. The pipette flow was calculated as shown below.
# Pipette flow (€)=0.45 ml sputa/time to empty (sec).
# [5] = test system: sheep lungs; assay: Ventilated sheep lung model, endotracheal tube plugged with PMP mucin; conditions: nebulised twice over 60 minutes; saline showed slight drop
compound,measurement,setting,value
"CC(=O)N[C@@H](CS)C(=O)O [NAC, N-acetylcysteine]","D (%), decrease of dynamic viscosity (γ)",[1]; aerosol NAC 10 mg/ml,16% and 16 ↓ %
same,"Dynamic viscosity (γ), After",[1]; aerosol NAC 10 mg/ml,1.467 ± 0.011 cSt
same,"D (%), decrease of dynamic viscosity (γ)",[1]; aerosol NAC 20 mg/ml,17% and 17 ↓ %
same,"Dynamic viscosity (γ), After",[1]; aerosol NAC 20 mg/ml,1.453 ± 0.055 cSt
same,"IL-9 level, compared to untreated",[2],the same effect was observed
same,"D (%), decrease of dynamic viscosity (γ)",[3]; aerosol NAC 10 mg/ml,6.0% and 6.0 ↓ %
same,"Dynamic viscosity (γ), After","[3]; aerosol NAC 10 mg/ml, 6.0 ml over 25 min, 37° C.",1.300 ± 0.002 cSt
same,"D (%), decrease of dynamic viscosity (γ)",[3]; aerosol NAC 20 mg/ml,9.8% and 10% and 9.8 ↓ %
same,"Dynamic viscosity (γ), After",[3]; aerosol NAC 20 mg/ml,1.247 ± 0.041 cSt
same,Sputum flow speed (€),[4],0.05 mL/s
same,Minute volume (MV) over 60 minutes,[5],substantial rise in MV
